Values of other authors, collected in US20250171456A1, “P[…] AND THEIR THERAPEUTIC USES” (priority 2022, published 2025).

Legend:
[1] = humans, after oral administration of psilocybin (Passie, 2002)
[2] = Ballesteros, 2006

Structure (SMILES)	time until psilocin is detectable in significant amounts in the plasma [1]	solubility in water relative to psilocin [2]
CN(C)CCc1c[nH]c2cccc(O)c12 [Psilocin]	20 to 40 min	
CN(C)CCc1c[nH]c2cccc(OP(=O)(O)O)c12 [Psilocybin]		more soluble in water than psilocin
